The results in this text go back to patent US20210053957A1, “HERBICIDAL COMPOUNDS” (SYNGENTA PARTICIPATIONS AG, priority 2018, published 2021).

What all share (experiment): Post-emergence efficacy, glasshouse spray test
Common to all, as to assay type: in vivo

Assay [1] concerns Euphorbia heterophylla (EPHHL). The following applies: Application Rate 500 g/Ha, evaluated after 13 days; for pest or weed control at 500 g/ha: Euphorbia heterophylla, post-emergence, 312 h, read-out: Control of weed species after post-emergence application, EPHHL (100=total damage to plant; 0=no damage to plant). A digest of the protocol:
(§1)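 Sow in standard soil; grow 14 d at 24/16° C, 14 h light, 65% humidity; spray aqueous dilution of IF50 formulation; return to glasshouse, water twice daily; score injury 0–100 at day 13.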

The subject of assay [2] is Ipomoea hederacea (IPOHE). The following applies: Application Rate 500 g/Ha, evaluated after 13 days; for pest or weed control at 500 g/ha: Ipomoea hederacea, post-emergence, 312 h, read-out: Control of weed species after post-emergence application, IPOHE (100=total damage to plant; 0=no damage to plant). A digest of the protocol:
as §1

Another assay has as its system Setaia fabei (SETFA). As to conditions: Application Rate 500 g/Ha, evaluated after 13 days; for pest or weed control at 500 g/ha: Setaria faberi, post-emergence, 312 h, read-out: Control of weed species after post-emergence application, SETFA (100=total damage to plant; 0=no damage to plant). In outline: as §1
The test system of the next assay is Lolium perenne (LOLPE). As to conditions: Application Rate 500 g/Ha, evaluated after 13 days; for pest or weed control at 500 g/ha: Lolium perenne, post-emergence, 312 h, read-out: Control of weed species after post-emergence application, LOLPE (100=total damage to plant; 0=no damage to plant). In outline: as §1
For assay [3], the system named is Digitaria sanguinalis (DIGSA). As to conditions: Application Rate 500 g/Ha, evaluated after 13 days; for pest or weed control at 500 g/ha: Digitaria sanguinalis, post-emergence, 312 h, read-out: Control of weed species after post-emergence application, DIGSA (100=total damage to plant; 0=no damage to plant). A digest of the protocol: as §1
Another assay deals with Eleusine indica (ELEIN). The following applies: Application Rate 500 g/Ha, evaluated after 13 days; for pest or weed control at 500 g/ha: Eleusine indica, post-emergence, 312 h, read-out: Control of weed species after post-emergence application, ELEIN (100=total damage to plant; 0=no damage to plant). In outline: as §1
For assay [4], the system named is Amaranthus palmeri (AMAPA). As to conditions: Application Rate 500 g/Ha, evaluated after 13 days; for pest or weed control at 500 g/ha: Amaranthus palmeri, post-emergence, 312 h, read-out: Control of weed species after post-emergence application, AMAPA (100=total damage to plant; 0=no damage to plant). A digest of the protocol:
as §1

Assay [5] deals with Echinochloa crus-galli (ECHCG). As to conditions: Application Rate 500 g/Ha, evaluated after 13 days; for pest or weed control at 500 g/ha: Echinochloa crus-galli, post-emergence, 312 h, read-out: Control of weed species after post-emergence application, ECHCG (100=total damage to plant; 0=no damage to plant). In outline: as §1
In assay [6] the test system is Chenopodium album (CHEAL). As to conditions: Application Rate 500 g/Ha, evaluated after 13 days; for pest or weed control at 500 g/ha: Chenopodium album, post-emergence, 312 h, read-out: Control of weed species after post-emergence application, CHEAL (100=total damage to plant; 0=no damage to plant). A digest of the protocol:
as §1

On to `CS(=O)(=O)C[N-]C(=O)CCC[n+]1ccc(-c2ncco2)cn1` [Compound A74], for which the pest or weed control at 500 g/ha in [1] was 70%; in [2], 80%; in the assay with Setaia fabei (SETFA) it was 80%; in the assay on Lolium perenne (LOLPE), 60%; in assay [3], 90%; in the assay with Eleusine indica (ELEIN), 100%. In addition, the pest or weed control at 500 g/ha in assay [4] was 100%; in assay [5] it was 40%; in assay [6] it was 90%.

Turning to `COP(=O)(CCC[n+]1ccc(-c2ncco2)cn1)OC.[Br-]` [Compound A76], the “Control of weed species after post-emergence application, EPHHL (100=total damage to plant; 0=no damage to plant)” value in [1] is given as 40. Further, the “Control of weed species after post-emergence application, IPOHE (100=total damage to plant; 0=no damage to plant)” value in [2] is listed as 30. Further, the “Control of weed species after post-emergence application, SETFA (100=total damage to plant; 0=no damage to plant)” value in the assay on Setaia fabei (SETFA) is on record as 40. The “Control of weed species after post-emergence application, LOLPE (100=total damage to plant; 0=no damage to plant)” value with Lolium perenne (LOLPE) is on record as 30. In [3], the “Control of weed species after post-emergence application, DIGSA (100=total damage to plant; 0=no damage to plant)” value turned out to be 60. Moreover, in the assay with Eleusine indica (ELEIN), the “Control of weed species after post-emergence application, ELEIN (100=total damage to plant; 0=no damage to plant)” value is 70. In assay [4], the “Control of weed species after post-emergence application, AMAPA (100=total damage to plant; 0=no damage to plant)” value is on record as 30. Also, the “Control of weed species after post-emergence application, ECHCG (100=total damage to plant; 0=no damage to plant)” value in [5] is reported as 30. Also, the “Control of weed species after post-emergence application, CHEAL (100=total damage to plant; 0=no damage to plant)” value in assay [6] is recorded as 20.

On to `CC(CNS(=O)(=O)[O-])[n+]1ccc(-c2ncco2)cn1` (stereo not drawn) [Compound A83], for which the pest or weed control at 500 g/ha came out at 70% in [1]; 40% in assay [2]; 60% in the assay on Setaia fabei (SETFA); 50% in the assay with Lolium perenne (LOLPE); 60% in assay [3]; 70% in the assay with Eleusine indica (ELEIN). The pest or weed control at 500 g/ha was determined as 100% in assay [4], 60% in assay [5] and 70% in assay [6].

With `O=S(=O)([O-])CC(O)C[n+]1ccc(-c2ncco2)cn1` (stereo not drawn) [Compound A84], the pest or weed control at 500 g/ha in assay [1] amounted to 90%; in assay [2], 40%; with Setaia fabei (SETFA), 50%; in the assay on Lolium perenne (LOLPE), 50%; in [3], 70%; in the assay on Eleusine indica (ELEIN), 70%. Further, the pest or weed control at 500 g/ha in [4] was found to be 100%; in assay [5], 70%; in [6], 90%.

As to `CCOP(=O)(O)CC[n+]1ccc(-c2ncco2)cn1` [Compound A85], the pest or weed control at 500 g/ha was 20% in [1]; 30% in assay [2]; 20% in the assay on Setaia fabei (SETFA); 10% in the assay on Lolium perenne (LOLPE); 40% in [3]; 30% in the assay with Eleusine indica (ELEIN). The values for the pest or weed control at 500 g/ha in assay [4], in assay [5] and in assay [6] were 10%, 20% and 0%, respectively.

As for `COP(=O)(O)CCC[n+]1ccc(-c2ncco2)cn1` [Compound A86], the pest or weed control at 500 g/ha was 30% in assay [1]; 40% in [2]; 20% in the assay on Setaia fabei (SETFA); 20% in the assay on Lolium perenne (LOLPE); 30% in assay [3]; 20% in the assay with Eleusine indica (ELEIN). The pest or weed control at 500 g/ha was 40% in assay [4], 10% in [5] and 30% in assay [6].

In the case of `COC(=O)C[n+]1ccc(-c2ncn(C)n2)cn1` [Compound A87], the pest or weed control at 500 g/ha in [1] was determined as 80%; in [2], 10%; in the assay with Setaia fabei (SETFA), 40%; in the assay on Lolium perenne (LOLPE) it was 0%; in [3], 90%; in the assay with Eleusine indica (ELEIN) it was 80%. Further, the pest or weed control at 500 g/ha worked out at 80% in assay [4], 50% in assay [5] and 20% in [6].

For the molecule `CC(C[n+]1ccc(-c2ncco2)cn1)C(=O)O` (stereo not drawn) [Compound A88], the pest or weed control at 500 g/ha in assay [1] came to 50%; in [2], 30%; with Setaia fabei (SETFA) it was 60%; in the assay with Lolium perenne (LOLPE) it was 30%; in [3] it was 70%; in the assay with Eleusine indica (ELEIN) it was 30%. Moreover, the values for the pest or weed control at 500 g/ha in [4], in [5] and in assay [6] were 100%, 80% and 100%, respectively.

For `CC(C[n+]1ccc(-c2ncco2)cn1)NS(=O)(=O)[O-]` (stereo not drawn) [Compound A89], the pest or weed control at 500 g/ha in assay [1] was 100%; in assay [2] it was 30%; in the assay with Setaia fabei (SETFA) it was 60%; in the assay on Lolium perenne (LOLPE), 60%; in assay [3], 90%; in the assay with Eleusine indica (ELEIN), 70%. In addition, the pest or weed control at 500 g/ha in assay [4] came out at 100%; in assay [5], 60%; in assay [6], 90%.

Consider `CC(C(=O)O)[n+]1ccc(-c2ncco2)cn1` (stereo not drawn) [Compound A90], for which the pest or weed control at 500 g/ha in assay [1] came out at 20%; in assay [2] it was 10%; in the assay with Setaia fabei (SETFA), 10%; with Lolium perenne (LOLPE) it was 0%; in assay [3], 10%; in the assay on Eleusine indica (ELEIN), 10%. Further, the pest or weed control at 500 g/ha was 20% in [4], 10% in [5] and 20% in [6].

On to `COC(=O)c1cccc(C[n+]2ccc(-c3ncco3)cn2)c1` [Compound A92], for which the pest or weed control at 500 g/ha amounted to 20% in [1]; 10% in [2]; 0% in the assay with Setaia fabei (SETFA); 0% in the assay on Lolium perenne (LOLPE); 20% in [3]; 10% in the assay on Eleusine indica (ELEIN). Also, the results for the pest or weed control at 500 g/ha in [4], in assay [5] and in assay [6] were 10%, 0% and 10%, respectively.

`C=C/N=C(\OC)c1cc[n+](C(C)C(=O)OC)nc1` (stereo not drawn) [Compound A93]: the pest or weed control at 500 g/ha was 10% in assay [1]; 20% in assay [2]; 40% with Setaia fabei (SETFA); 10% in the assay with Lolium perenne (LOLPE); 50% in assay [3]; 30% in the assay with Eleusine indica (ELEIN). Besides, the pest or weed control at 500 g/ha in assay [4] was found to be 0%; in assay [5] it was 30%; in assay [6] it was 0%.

`COP(=O)(C[n+]1ccc(-c2ncco2)cn1)OC` [Compound A94]: the “Control of weed species after post-emergence application, EPHHL (100=total damage to plant; 0=no damage to plant)” value in [1] came to 100. The “Control of weed species after post-emergence application, IPOHE (100=total damage to plant; 0=no damage to plant)” value in assay [2] is reported as 90. Also, the “Control of weed species after post-emergence application, SETFA (100=total damage to plant; 0=no damage to plant)” value in the assay with Setaia fabei (SETFA) amounted to 90. Also, in the assay with Lolium perenne (LOLPE), the “Control of weed species after post-emergence application, LOLPE (100=total damage to plant; 0=no damage to plant)” value was determined as 40. In [3], the “Control of weed species after post-emergence application, DIGSA (100=total damage to plant; 0=no damage to plant)” value worked out at 100. In the assay on Eleusine indica (ELEIN), the “Control of weed species after post-emergence application, ELEIN (100=total damage to plant; 0=no damage to plant)” value is 100. Further, the “Control of weed species after post-emergence application, AMAPA (100=total damage to plant; 0=no damage to plant)” value in assay [4] is reported as 90. Further, in assay [5], the “Control of weed species after post-emergence application, ECHCG (100=total damage to plant; 0=no damage to plant)” value amounted to 90. For the same molecule, the “Control of weed species after post-emergence application, CHEAL (100=total damage to plant; 0=no damage to plant)” value in assay [6] was determined as 90.

Turning to `COC(=O)c1ccccc1C[n+]1ccc(-c2ncco2)cn1` [Compound A95], the pest or weed control at 500 g/ha turned out to be 30% in assay [1]; 10% in [2]; 20% with Setaia fabei (SETFA); 0% with Lolium perenne (LOLPE); 30% in assay [3]; 10% in the assay with Eleusine indica (ELEIN). In addition, the results for the pest or weed control at 500 g/ha in [4], in assay [5] and in [6] were 10%, 10% and 0%, respectively.
